Reference: patent US20230278972A1, “SUBSTITUTED HALOALKYL SULFONANILIDE HERBICIDES” (FMC Corporation, priority 2020, published 2023)

Key:
Format in all cases: in vivo
[1] = tested on: ducksalad (Heteranthera limosa); assay: Test B1 flooded paddy test, ducksalad; details: 250 g ai/ha, Flood, applied to paddy water, 2-leaf stage, visually evaluated after 10 to 14 days
Description: (§1) A dash (-) response means no test result.

[2] = tested on: wheat (Triticum aestivum); assay: Test A1 preemergence, wheat
Procedure, shortened: (§2)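 Test compounds were formulated in a non-phytotoxic solvent mixture containing a surfactant. For preemergence, seeds sown in a loam soil–sand blend received a directed soil spray. For postemergence, potted plants in the same soil, 2 to 10 cm tall at the one- to two-leaf stage, were sprayed.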

[3] = tested on: barnyardgrass (Echinochloa crus-galli); assay: Test B1 flooded paddy test, barnyardgrass; details: 250 g ai/ha, Flood, applied to paddy water, 2-leaf stage, visually evaluated after 10 to 14 days
Description: as §1

[4] = tested on: Ryegrass, Italian (Italian ryegrass, Lolium multiflorum); assay: Test A1 postemergence, Ryegrass, Italian; details: Postemergence
Procedure, shortened: (§3)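 Herbicidal response was scored on plants treated either preemergence, by directed spray onto soil of a loam–sand blend after sowing, or postemergence on potted plants at the one- to two-leaf stage, 2–10 cm high. Test chemicals were carried in a non-phytotoxic solvent mix with surfactant.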

[5] = tested on: horseweed (Erigeron canadensis); assay: Test A1 postemergence, horseweed; details: Postemergence
Procedure, shortened: as §3

[6] = tested on: kochia (Bassia scoparia); assay: Test A1 preemergence, kochia
Procedure, shortened: as §2

[7] = tested on: soybean (Glycine max); assay: Test A1 preemergence, soybean
Procedure, shortened: as §2

[8] = tested on: Pigweed, Palmer (palmer amaranth, palmer pigweed, Amaranthus palmeri); assay: Test A1 preemergence, Pigweed, Palmer
Procedure, shortened: as §2

[9] = tested on: Oat, Wild (wild oat, Avena fatua); assay: Test A1 preemergence, Oat, Wild
Procedure, shortened: as §2

[10] = tested on: Oat, Wild (wild oat, Avena fatua); assay: Test A1 postemergence, Oat, Wild; details: Postemergence
Procedure, shortened: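 Seeds were first planted into a blend of loam soil and sand and given a preemergence directed soil spray. In parallel, pots of the same soil were sown for postemergence application once plants reached 2 to 10 cm and the one- to two-leaf stage. Both used surfactant-containing non-phytotoxic solvent formulations.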

[11] = 31 g ai/ha, 0 to 100 scale (0 no effect, 100 complete control)
[12] = 125 g ai/ha, 0 to 100 scale, 0 no effect, 100 complete control
[13] = 31 g ai/ha, 0 to 100 scale (0 no effect, 100 complete control), 10 days

Row | SMILES | Plant response rating, Ducksalad (0 to 100 scale, 0 is no effect, 100 is complete control) [1] | Plant response rating, Wheat [2, 11] | Plant response rating, Wheat [2, 12] | Plant response rating, Barnyardgrass (0 to 100 scale, 0 is no effect, 100 is complete control) [3] | Plant response rating, Ryegrass, Italian [4, 13] | Plant response rating, Ryegrass, Italian ([4]; 125 g ai/ha, 0 to 100 scale) | Plant response rating, Horseweed [5, 13] | Plant response rating, Horseweed ([5]; 125 g ai/ha, 0 to 100 scale) | Plant response rating, Kochia [6, 11] | Plant response rating, Kochia [6, 12] | Plant response rating, Soybean [7, 11] | Plant response rating, Soybean [7, 12] | Plant response rating, Pigweed, Palmer [8, 11] | Plant response rating, Pigweed, Palmer [8, 12] | Plant response rating, Oat, Wild [9, 11] | Plant response rating, Oat, Wild [9, 12] | Plant response rating, Oat, Wild [10, 13] | Plant response rating, Oat, Wild ([10]; 125 g ai/ha, 0 to 100 scale)
1 | CCCCOC1CC(c2cc(NS(=O)(=O)C(F)(F)F)c(C)cc2C)=NO1 (stereo not drawn) [Compound 323] | 0 | 0 | 50 | 0 | 0 | 20 | 0 | 50 | 20 | 90 | 0 | 0 | 90 | 100 | 20 | 30 | 0 | 0
2 | Cc1cc(F)c(C2=NOC3CCCC23)cc1NS(=O)(=O)C(F)(F)F (stereo not drawn) [Compound 310] | 0 | 0 | 0 | 0 | 20 | 30 | 10 | 30 | 0 | 40 | 0 | 0 | 0 | 70 | 0 | 0 | 0 | 10
3 | Cc1c(NS(=O)(=O)C(F)(F)F)cc(C(=O)N2CCC(F)CC2)c(C)c1C [Compound 358] | 0 | 0 | 30 | 50 | 20 | 20 | 60 | 70 | 20 | 30 | 50 | 70 | 90 | 90 | 0 | 10 | 0 | 0
4 | Cc1cc(C2CC2)c(C2=NOC3CCCC23)cc1N(COC(=O)C(C)(C)C)S(=O)(=O)C(F)(F)F (stereo not drawn) [Compound 355] | 45 | 10 | 10 | 60 | 30 | 40 | 70 | 70 | 0 | 0 | 20 | 30 | 0 | 70 | 0 | 0 | 0 | 10
5 | Cc1cc(C)c(N(C(=O)OCC(C)C)S(=O)(=O)C(F)(F)F)cc1C1=NOC2CCCC12 (stereo not drawn) [Compound 299] | 55 | 0 | 70 | 95 | 30 | 50 | 0 | 30 | 0 | 50 | 0 | 0 | 0 | 70 | 0 | 20 | 0 | 0
6 | Cc1c(NS(=O)(=O)C(F)(F)F)cc(C(=O)N2CCC(Cl)CC2)c(C)c1C [Compound 356] | 45 | 0 | 30 | 45 | 20 | 30 | 50 | 80 | 0 | 30 | 0 | 80 | 50 | 100 | 0 | 20 | 0 | 10
7 | CCOC1CC(c2cc(NS(=O)(=O)C(F)(F)F)c(C)cc2C)=NO1 (stereo not drawn) [Compound 318] | 80 | 0 | 50 | 95 | 10 | 70 | 20 | 50 | 60 | 70 | 0 | 30 | 80 | 100 | 0 | 10 | 0 | 10
8 | Cc1c(NS(=O)(=O)C(F)(F)F)cc(C(=O)N(C)C)c(C)c1C [Compound 288] | 60 | 0 | 0 | 0 | 0 | 0 | 20 | 30 | 0 | 40 | 30 | 40 | 50 | 70 | 0 | 0 | 0 | 0
9 | Cc1cc(C2CC2)c(C2=NOC3CCCC23)cc1NS(=O)(=O)C(F)(F)F (stereo not drawn) [Compound 307] | 70 | 10 | 80 | 60 | 20 | 80 | 30 | 80 | 0 | 10 | 0 | 30 | 30 | 80 | 0 | 40 | 0 | 20
10 | Cc1c(C(=O)N2CCC(Cl)CC2)cc(N(COC(=O)C(C)(C)C)S(=O)(=O)C(F)(F)F)c(C)c1C [Compound 359] | 25 | 0 | 0 | 95 | 0 | 0 | 50 | 80 | 0 | 0 | 0 | 30 | 0 | 20 | 0 | 0 | 0 | 0
